≈ marks a conversion by molar mass, not a printed value.
Tests used:
[1] = Solubility test of colchicine in solvents; type: physicochemical; conditions: thermodynamic from solid, 25° C.
Description: About 2 g of the colchicine raw material was weighed and placed in a 100 ml brown volumetric flask, into which 10 ml of a solvent was added. The mixture was uniformly mixed, placed in a thermostatic oscillator with a water bath at 25° C., and observed periodically, into which the raw material was continuously added once the solution became clear. […] After the saturated solution was centrifuged in a centrifuge, the supernatant was taken and diluted to a suitable concentration, the concentration of which was then determined using the external standard method, and the solubility was calculated.

[2] = Solubility of colchicine in different types of pressure-sensitive adhesives; type: physicochemical; conditions: for State in the 4098 pressure-sensitive adhesive: 0 days; for Stability (crystallization or not) in the 4098 pressure-sensitive adhesive: room temperature for 4 months
Description: Colchicine with different contents was dissolved in pressure-sensitive adhesive systems with different properties.

Which solubility at 24 h ([1]; 1 M triethanolamine (TEOA) in ethanol, organic solvent or mixture, 1M solution of TEOA (triethanolamine) in ethanol) does the source give for `COc1cc2c(c(OC)c1OC)-c1ccc(OC)c(=O)cc1[C@@H](NC(C)=O)CC2` [colchicine, N-(5,6,7,9-tetrahydro-1,2,3,10-tetramethoxy-9-oxobenzo[α]cycloheptatrienocycloheptatrien-7-yl)-(S)-acetamide] here?
Its solubility at 24 h is 740 mg/mL (≈ 1850 mM).

What about the solubility at 24 h ([1]; organic solvent or mixture, DGME (diethylene glycol monoethyl ether)) of the same molecule?
Its solubility at 24 h is 350 mg/mL (≈ 876 mM).

And the solubility at 24 h ([1]; organic solvent or mixture, Ethanol:ethyl acetate (1:1, v/v))?
The solubility at 24 h was 380 mg/mL (≈ 951 mM).

And the solubility at 24 h ([1]; organic solvent or mixture, Ethyl acetate)?
Its solubility at 24 h is 0.48 mg/mL (≈ 1.2 mM).

And the solubility at 24 h ([1]; organic solvent or mixture, ethanol)?
Its solubility at 24 h is 590 mg/mL (≈ 1480 mM).

And the solubility at 24 h ([1]; water)?
Its solubility at 24 h is over 1000 mg/mL.

What about the “State in the 4098 pressure-sensitive adhesive” value ([2]; content higher than 5%) of the same molecule?
The value was “semitransparent”.

What about the “State in the 4098 pressure-sensitive adhesive” value ([2]; content of colchicine 5% or less) of the same molecule?
The value was “transparent”.

What about the “Stability (crystallization or not) in the 4098 pressure-sensitive adhesive” value ([2]; content 5% or less) of the same molecule?
The value was “no crystallization is found”.

What about the “Stability (crystallization or not) in the 4098 pressure-sensitive adhesive” value ([2]; content more than 5%) of the same molecule?
Its value is “crystallization is precipitated”.

What about the “Highest solubility of colchicine in typical acrylic pressure-sensitive adhesives” value ([2]; without a permeation enhancer) of the same molecule?
The value was “about 5%”.
